Assays:
[1] = test system: H3K9me3 oligonucleosomes; test: Chromatin coprecipitation, H3K9me3 oligonucleosomes; type: binding, Xenopus laevis
Description: 6.7 nM oligonucleosomes were incubated with 1 μM recombinant protein in 100 μl binding buffer (10 mM triethanolamine (pH 7.5), 150 mM NaCl, 5 mM MgCl2, 0.1 mM EDTA, 0.1% (v/v) Triton-X100) for 1 h on ice. Precipitated chromatin complexes were recovered by centrifugation at 16,100g for 30 min at 4°C. Pellets were washed once with 0.5 ml binding buffer and centrifuged for 15 min at 4 °C. Precipitated material was resuspended in 10 μl 1 × SDS loading buffer and boiled for 5 min before running on SDS–PAGE.
Supplementary Table 1: Summary of conditions used in the different experiments of this study.
experiment result modification template Temp. [NaCl] [MgCl2]
chromatin Fig. 1e,f; Fig. S1f-h; H3K9me3 oligo- 4 150 5

[2] = test system: H3KC9me3 oligonucleosome; test: ITC, H3KC9me3 oligonucleosome; type: binding, Xenopus laevis; conditions: for Kd: read-out: Kd (apparent dissociation constant)
Text: Mononucleosomes were reconstituted on a 187 bp DNA fragment containing the ‘601' sequence flanked on each site by a linker of 20 bp[55]. Oligonucleosomes were reconstituted on a 12 × 200 bp × 601 template. Plasmids carrying the respective inserts were purified using a Giga kit (Qiagen, Hilden, Germany). Templates for reconstitution were released from plasmids by restriction digest with BsoBI for mononucleosomes and a mix of DdeI, BfuCI, HaeII and EcoRI for oligonucleosomes. To separate vector backbone from DNA used for chromatin assembly stepwise precipitation with polyethylene glycol (PEG) 6000/0.5 M NaCl was carried out (final PEG concentration 2–9% and 20% (w/v)). DNA pellets were washed with 70% (v/v) ethanol and dissolved in water. Double stranded, short, biotinylated DNA linkers were ligated to the DNA template before chromatin reconstitution.
ITC measurements were performed on a iTC200 calorimeter (Microcal, Malvern, UK) at 25°C in binding buffer (10 mM triethanolamine (pH 7.5), 20 or 150 mM NaCl, 0.1 mM EDTA). Reaction heats were recorded by sequences of 37 injections of 1.8 mM hHP1β, spaced at 120 s intervals, into 250 μl of 60 μM H3 peptides, nucleosomes or oligonucleosomal arrays under constant stirring at 1,000 r.p.m. (injection #1–10: 0.5 μl each; injection #11–32: 1 μl each; injection #33–37: 2 μl each). Heats of dilution, obtained by the titration of hHP1β into buffer, were substracted from raw data before analysis. Raw data were integrated, normalized and the apparent heat change (Δq) of the reaction was plotted against the molecular ratio using the Origin software. For the determination of apparent enthalpy changes (ΔHapp), the molar association constant (KA), and the stoichiometry (n) of the interaction, non-linear least-square fitting of the Δq values was performed by the Origin software using a binding model of one set of identical binding sites.
Figure S4 Hiragami-Hamada et al. […]
Supplementary Figure 4: Quantitative analysis of interaction of hHP1β with H3K9me3-peptides and
(a) ITC measurements of H3K9me3-peptide/hHP1β WT interaction at 20 mM NaCl (left) and 150 mM
NaCl (right). Upper panels, raw data of heat release upon stepwise injection of recombinant protein into
solution of peptide; lower panels, plots of integrated heats of protein injections vs. molar ratio of hHP1β
WT per peptide calculated by MicroCal software. Injections #1-10: 0.5 µl; injections #11-32: 1 µ l;
(b) ITC measurements as in (a) but with H3K C9me3- oligonucleosomal arrays. […]

| Substance | recovery with H3K9me3 oligonucleosomes ([1]; 6.7 nM oligonucleosomes, 1 μM protein, 150 mM NaCl, 5 mM MgCl2, 1 h on ice) | competition with hHP1β WT for interaction with H3K9me3 oligonucleosomes ([1]; competitive coprecipitation, Supplementary Fig. 2b) | reduced interaction with H3KC9me3 oligonucleosomes compared with hHP1β WT ([2]; 150 mM NaCl) [fold] | Kd ([2]; 150 mM NaCl, pH 7.5, 25°C) [µM] | specificity for H3K9me3 ([1]; chromatin coprecipitation, 5 mM MgCl2) | dependence of recovery on DNA sequence ([1]; chromatin on linearized pUC18 or 12 x 5S rDNA) | Kd (apparent dissociation constant) ([2]; 20 mM NaCl, pH 7.5, 25°C, NB, not binding) |
| --- | --- | --- | --- | --- | --- | --- | --- |
| hHP1β I161A: CSD point mutant of hHP1β incapable of dimerization | neither the monomeric CD alone nor an I161A mutant protein, which is incapable of dimerization[8], were significantly recovered with H3K9me3 oligonucleosomes | ineffective in competing with hHP1β WT | 12 | 132 ± 24 |  |  |  |
| hHP1β WT: recombinant human heterochromatin protein 1β (GenBank NM_001127228), 185 aa |  |  |  | 11 ± 2 | coprecipitated only with H3K9me1/2/3 but not H3K9me0 oligonucleosomes | independent of the DNA sequence used for chromatin reconstitution | could not detect any binding |
